Assay results from the supplement of paper PMC10307832.

What was measured:
Experiment in all cases: relative viability (nuclei count vs DMSO), 5 days (fraction); higher = more cells survive
[1] = compound: C1CNCCC1C2=CC(=NN2)C3=CC=NC=C3 + O=C(CCCCCCC(=O)Nc1ccccc1)NO [Vorinostat] (partner 1 µM)
Method in brief: (§1)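 The day after seeding in 1536-well plates, lung cancer cell lines were treated by pin tool with a single drug, or with a fixed anchor-drug dose together with five library-drug doses (not always all listed) in √10 steps. After 5 days, a combined fix-and-stain solution (final 0.05% Triton X-100, 1% formaldehyde, 1 ug/ml Hoechst) was added. Nuclei counted on 4× images gave relative viability as treated counts over vehicle counts, reported as the median of duplicate plates.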

Tanzisertib + Olaparib = compound: O[C@H]1CC[C@H](Nc2ncc3nc(Nc4c(F)cc(F)cc4F)n([C@H]4CCOC4)c3n2)CC1 [Tanzisertib] + O=C(c1cc(Cc2n[nH]c(=O)c3ccccc23)ccc1F)N1CCN(C(=O)C2CC2)CC1 [Olaparib] (partner 8 µM)
Method in brief: as §1

[2] = compound: C1CNCCC1C2=CC(=NN2)C3=CC=NC=C3 + Nc1nc2[nH]cc(CCc3ccc(C(=O)N[C@@H](CCC(=O)O)C(=O)O)cc3)c2c(=O)[nH]1 [Pemetrexed] (partner 0.2 µM)
Method in brief: as §1

Tanzisertib + Tozasertib = compound: O[C@H]1CC[C@H](Nc2ncc3nc(Nc4c(F)cc(F)cc4F)n([C@H]4CCOC4)c3n2)CC1 [Tanzisertib] + Cc1cc(Nc2cc(N3CCN(C)CC3)nc(Sc3ccc(NC(=O)C4CC4)cc3)n2)n[nH]1 [Tozasertib] (partner 0.1 µM)
Method in brief: as §1

| Cell Line | relative viability ([1]; first compound 0.08 µM) | relative viability ([1]; first compound 0.8 µM) | relative viability ([1]; first compound 2.53 µM) | relative viability ([1]; first compound 8 µM) | relative viability (Tanzisertib + Olaparib; first compound 0.08 µM) | relative viability (Tanzisertib + Olaparib; first compound 0.253 µM) | relative viability (Tanzisertib + Olaparib; first compound 0.8 µM) | relative viability (Tanzisertib + Olaparib; first compound 2.53 µM) | relative viability (Tanzisertib + Olaparib; first compound 8 µM) | relative viability ([2]; first compound 0.08 µM) | relative viability ([2]; first compound 0.8 µM) | relative viability ([2]; first compound 2.53 µM) | relative viability ([2]; first compound 8 µM) | relative viability (Tanzisertib + Tozasertib; first compound 0.08 µM) | relative viability (Tanzisertib + Tozasertib; first compound 0.253 µM) | relative viability (Tanzisertib + Tozasertib; first compound 0.8 µM) | relative viability (Tanzisertib + Tozasertib; first compound 2.53 µM) | relative viability (Tanzisertib + Tozasertib; first compound 8 µM) |
| --- | --- | --- | --- | --- | --- | --- | --- | --- | --- | --- | --- | --- | --- | --- | --- | --- | --- | --- |
| BEN | 0.489 | 0.611 | 0.635 | 0.57 | 1.05 | 0.968 | 1.05 | 1.12 | 0.997 | 0.788 | 0.638 | 0.793 | 0.933 | 0.464 | 0.451 | 0.621 | 0.418 | 0.407 |
| NCI-H2023 | 0.262 | 0.589 | 0.767 | 0.602 | 0.523 | 0.47 | 0.497 | 0.44 | 0.452 | 0.206 | 0.222 | 0.224 | 0.241 | 0.479 | 0.431 | 0.409 | 0.321 | 0.2 |
| LC-2-ad | 0.723 | 0.757 | 0.741 | 0.658 | 0.68 | 0.743 | 0.706 | 0.714 | 0.794 | 0.261 | 0.291 | 0.273 | 0.281 | 0.479 | 0.412 | 0.495 | 0.415 | 0.34 |
| NCI-H647 | 0.572 | 0.739 | 0.632 | 0.635 | 0.875 | 0.487 | 0.505 | 0.657 | 0.65 | 0.176 | 0.146 | 0.174 | 0.189 | 0.283 | 0.269 | 0.281 | 0.388 | 0.226 |
| NCI-H1755 | 0.717 | 0.737 | 0.628 | 0.736 | 0.906 | 0.868 | 0.889 | 0.855 | 0.865 | 0.475 | 0.439 | 0.433 | 0.329 | 0.58 | 0.618 | 0.561 | 0.582 | 0.533 |
| EPLC-272H | 0.618 | 0.501 | 0.452 | 0.468 | 0.991 | 0.767 | 0.758 | 1.51 | 0.572 | 0.298 | 0.317 | 0.38 | 0.412 | 0.308 | 0.183 | 0.326 | 0.303 | 0.171 |
| NCI-H1437 | 0.863 | 0.94 | 0.912 | 0.971 | 0.634 | 0.647 | 0.669 | 0.652 | 0.619 | 0.334 | 0.312 | 0.363 | 0.303 | 0.451 | 0.394 | 0.407 | 0.381 | 0.384 |
| EKVX | 0.78 | 0.82 | 0.861 | 0.737 | 0.888 | 0.876 | 0.862 | 0.872 | 0.792 | 0.423 |  | 0.427 | 0.404 | 0.403 | 0.395 | 0.407 | 0.36 | 0.377 |
| NCI-H1651 | 0.512 | 0.581 | 0.577 | 0.589 | 0.206 | 0.182 | 0.196 | 0.2 | 0.175 | 0.592 | 0.597 | 0.608 | 0.575 | 0.711 | 0.707 | 0.637 | 0.689 | 0.557 |
| HCC-15 | 0.844 | 0.871 | 0.845 | 0.877 | 0.779 | 0.742 | 0.791 | 0.713 | 0.727 | 0.221 | 0.229 | 0.234 | 0.211 | 0.535 | 0.294 | 0.391 | 0.4 | 0.27 |
| LCLC-103H | 0.822 | 0.752 | 0.831 | 0.757 | 0.76 | 0.813 | 0.816 | 0.8 | 0.81 | 0.492 | 0.5 | 0.493 | 0.487 | 0.597 | 0.442 | 0.499 | 0.475 | 0.457 |
| NCI-H23 | 0.656 |  | 0.668 | 0.721 | 0.316 | 0.341 | 0.36 | 0.301 | 0.314 | 0.719 |  | 0.808 | 0.818 | 0.369 | 0.362 | 0.306 | 0.29 | 0.293 |
| NCI-H596 | 0.73 | 0.417 | 0.638 | 0.589 | 0.758 | 0.657 | 0.622 | 0.625 | 0.697 | 0.483 | 0.476 | 0.525 | 0.478 | 1.02 | 0.809 | 0.971 | 1.06 | 0.715 |
| NCI-H460 | 0.484 | 1.01 | 0.787 | 0.683 | 0.487 | 0.445 | 0.417 | 0.442 | 0.503 | 0.0816 | 0.066 | 0.0652 | 0.0683 | 0.548 | 0.376 | 0.457 | 0.382 | 0.099 |
| HCC-366 | 0.444 | 0.36 | 0.426 | 0.372 |  | 0.319 | 0.36 | 0.353 | 0.308 | 0.212 | 0.193 | 0.146 | 0.173 | 0.105 | 0.0977 | 0.114 | 0.0525 | 0.0508 |
| NCI-H2085 | 0.858 |  | 0.809 | 0.845 |  | 0.763 | 0.745 | 0.803 | 0.76 | 1.1 |  | 0.96 | 0.969 | 0.9 | 0.822 | 0.914 | 0.644 | 0.59 |
| NCI-H522 | 0.911 | 0.762 | 0.998 | 1.04 | 0.629 | 0.809 | 0.726 | 0.647 | 0.634 | 0.844 | 1.13 | 0.934 | 1.26 | 0.578 | 0.458 | 0.555 | 0.572 | 0.545 |
| PC-14 | 0.536 | 0.712 | 0.897 | 0.7 | 0.343 | 0.228 | 0.402 | 0.271 | 0.246 | 0.107 | 0.134 | 0.138 | 0.131 | 0.652 | 0.605 | 0.54 | 0.537 | 0.499 |
